Experimental data published in patent US8192962B2, “Processes for detecting toxic substances” (Daikin Industries, Ltd., priority 2001, dated 2012).

System: Genes belonging to other category
Experiment: DNA chip mRNA expression in yeast, genes belonging to other category (Table 9)
Type: cell-based, Saccharomyces cerevisiae S288C
How it was run: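 Value is the scanned fluorescence intensity ratio of exposed versus chemical-free cells. Log-phase S288C yeast in YPD at 25° C. received one toxic substance for two hours, dosed to slow growth without killing; Cy3/Cy5-labeled cDNA from oligo-dT-purified mRNA was hybridized to a whole-genome chip at 65° C.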

CCCCCCCCCCCCc1ccc(S(=O)(=O)[O-])cc1.[Na+] [(17), sodium dodecylbenzosulfonate]
The level of expressed mRNA in the presence of chemical substance/The level of expressed mRNA in the absence of chemical substance (yeast gene YKL008C): 1.4 | The level of expressed mRNA in the presence of chemical substance/The level of expressed mRNA in the absence of chemical substance (yeast gene YKL013C): 1.6 | The level of expressed mRNA in the presence of chemical substance/The level of expressed mRNA in the absence of chemical substance (yeast gene YKL039W): 1.2 | The level of expressed mRNA in the presence of chemical substance/The level of expressed mRNA in the absence of chemical substance (yeast gene YKL096W): 0.5 | The level of expressed mRNA in the presence of chemical substance/The level of expressed mRNA in the absence of chemical substance (yeast gene YKL165C): 0.9 | The level of expressed mRNA in the presence of chemical substance/The level of expressed mRNA in the absence of chemical substance (yeast gene YKL193C): 1.2 | The level of expressed mRNA in the presence of chemical substance/The level of expressed mRNA in the absence of chemical substance (yeast gene YLR120C): 3.5 | The level of expressed mRNA in the presence of chemical substance/The level of expressed mRNA in the absence of chemical substance (yeast gene YLR136C): 1.8 | The level of expressed mRNA in the presence of chemical substance/The level of expressed mRNA in the absence of chemical substance (yeast gene YLR178C): 2.0 | The level of expressed mRNA in the presence of chemical substance/The level of expressed mRNA in the absence of chemical substance (yeast gene YLR250W): 1.4 | The level of expressed mRNA in the presence of chemical substance/The level of expressed mRNA in the absence of chemical substance (yeast gene YLR327C): 3.3 | The level of expressed mRNA in the presence of chemical substance/The level of expressed mRNA in the absence of chemical substance (yeast gene YLR356W): 1.1 | The level of expressed mRNA in the presence of chemical substance/The level of expressed mRNA in the absence of chemical substance (yeast gene YLR362W): 1.2 | The level of expressed mRNA in the presence of chemical substance/The level of expressed mRNA in the absence of chemical substance (yeast gene YLR391W): 1.4 | The level of expressed mRNA in the presence of chemical substance/The level of expressed mRNA in the absence of chemical substance (yeast gene YLR429W): 1.0 | The level of expressed mRNA in the presence of chemical substance/The level of expressed mRNA in the absence of chemical substance (yeast gene YMR004W): 0.9 | The level of expressed mRNA in the presence of chemical substance/The level of expressed mRNA in the absence of chemical substance (yeast gene YMR094W): 1.0 | The level of expressed mRNA in the presence of chemical substance/The level of expressed mRNA in the absence of chemical substance (yeast gene YMR104C): 2.8 | The level of expressed mRNA in the presence of chemical substance/The level of expressed mRNA in the absence of chemical substance (yeast gene YMR219W): 1.1 | The level of expressed mRNA in the presence of chemical substance/The level of expressed mRNA in the absence of chemical substance (yeast gene YMR226C): 1.6 | The level of expressed mRNA in the presence of chemical substance/The level of expressed mRNA in the absence of chemical substance (yeast gene YMR275C): 0.9 | The level of expressed mRNA in the presence of chemical substance/The level of expressed mRNA in the absence of chemical substance (yeast gene YMR276W): 1.2 | The level of expressed mRNA in the presence of chemical substance/The level of expressed mRNA in the absence of chemical substance (yeast gene YMR314W): 1.3 | The level of expressed mRNA in the presence of chemical substance/The level of expressed mRNA in the absence of chemical substance (yeast gene YNL006W): 1.0 | The level of expressed mRNA in the presence of chemical substance/The level of expressed mRNA in the absence of chemical substance (yeast gene YNL007C): 1.1 | The level of expressed mRNA in the presence of chemical substance/The level of expressed mRNA in the absence of chemical substance (yeast gene YNL093W): 3.0 | The level of expressed mRNA in the presence of chemical substance/The level of expressed mRNA in the absence of chemical substance (yeast gene YNL333W): 1.4 | The level of expressed mRNA in the presence of chemical substance/The level of expressed mRNA in the absence of chemical substance (yeast gene YNR010W): 1.7 | The level of expressed mRNA in the presence of chemical substance/The level of expressed mRNA in the absence of chemical substance (yeast gene YNR069C): 1.1 | The level of expressed mRNA in the presence of chemical substance/The level of expressed mRNA in the absence of chemical substance (yeast gene YOL013C): 1.1 | The level of expressed mRNA in the presence of chemical substance/The level of expressed mRNA in the absence of chemical substance (yeast gene YOL164W): 1.1 | The level of expressed mRNA in the presence of chemical substance/The level of expressed mRNA in the absence of chemical substance (yeast gene YOR036W): 1.6 | The level of expressed mRNA in the presence of chemical substance/The level of expressed mRNA in the absence of chemical substance (yeast gene YOR117W): 1.4 | The level of expressed mRNA in the presence of chemical substance/The level of expressed mRNA in the absence of chemical substance (yeast gene YOR124C): 1.0 | The level of expressed mRNA in the presence of chemical substance/The level of expressed mRNA in the absence of chemical substance (yeast gene YOR132W): 1.2 | The level of expressed mRNA in the presence of chemical substance/The level of expressed mRNA in the absence of chemical substance (yeast gene YOR157C): 1.2 | The level of expressed mRNA in the presence of chemical substance/The level of expressed mRNA in the absence of chemical substance (yeast gene YOR181W): 1.1 | The level of expressed mRNA in the presence of chemical substance/The level of expressed mRNA in the absence of chemical substance (yeast gene YOR185C): 0.9 | The level of expressed mRNA in the presence of chemical substance/The level of expressed mRNA in the absence of chemical substance (yeast gene YOR198C): 1.1 | The level of expressed mRNA in the presence of chemical substance/The level of expressed mRNA in the absence of chemical substance (yeast gene YOR259C): 0.9 | The level of expressed mRNA in the presence of chemical substance/The level of expressed mRNA in the absence of chemical substance (yeast gene YOR261C): 1.0 | The level of expressed mRNA in the presence of chemical substance/The level of expressed mRNA in the absence of chemical substance (yeast gene YOR288C): 1.5 | The level of expressed mRNA in the presence of chemical substance/The level of expressed mRNA in the absence of chemical substance (yeast gene YOR355W): 0.8 | The level of expressed mRNA in the presence of chemical substance/The level of expressed mRNA in the absence of chemical substance (yeast gene YOR383C): 1.4 | The level of expressed mRNA in the presence of chemical substance/The level of expressed mRNA in the absence of chemical substance (yeast gene YPL089C): 1.5 | The level of expressed mRNA in the presence of chemical substance/The level of expressed mRNA in the absence of chemical substance (yeast gene YPL109C): 1.2 | The level of expressed mRNA in the presence of chemical substance/The level of expressed mRNA in the absence of chemical substance (yeast gene YPL149W): 2.2 | The level of expressed mRNA in the presence of chemical substance/The level of expressed mRNA in the absence of chemical substance (yeast gene YPL154C): 1.6 | The level of expressed mRNA in the presence of chemical substance/The level of expressed mRNA in the absence of chemical substance (yeast gene YPR103W): 1.2 | The level of expressed mRNA in the presence of chemical substance/The level of expressed mRNA in the absence of chemical substance (yeast gene YPR108W): 1.0
